Assays:
[1] = test system: CD44; assay: CD44 expression in whole bone marrow of MM patients by flow cytometry; type: cell-based, human; details: 24 hrs; all 5 Len-refractory and 2 of the 3 newly diagnosed MM patients
Protocol: Since MM cell survival is strongly dependent on microenvironment, the effects of AR-42 in combination with Len on MM cell killing in the context of the bone marrow (BM) milieu was examined. Total BM samples obtained from 5 Len-refractory MM (patients 1, 2, 3, 4, and 7) and 3 newly diagnosed MM patients (patients 5, 6, and 8) were treated with AR-42 (0.2 μM) and Len (5 μM) as single agents, and in combination. […] The BM cells from the same patients were used to assess CD44 expression at 24 hrs after AR-42 treatment.
CD44 surface expression was analyzed by staining cells with CD44-FITC antibody (BD Biosciences) for 30 min. in the dark, at room temperature. Apoptosis was measured by Annexin V-FITC and Propidium Iodide (PI) (Clontech) staining for 15 min. in the dark, at room temperature and data immediately acquired on a Beckman Coulter FC500 (Beckman Coulter) machine. Analysis was conducted using the FlowJo Software vX.0.7 (Tree Star Inc.). For the multiparametric analysis, the bone marrow samples were stained with CD38-PE (347687; BD Bioscience), CD138-APC (347193; BD Bioscience), CD45-ECD (A07784; Beckman Coulter), CD44-FITC (BD Bioscience) and AnnexinV-FITC (Clontech) for 30 minutes, washed with PBS and immediately analyzed with Gallios cytometer (Beckman Coulter).
Mouse data were evaluated by ANOVA, and synergy between AR-42 and Len was tested by interaction contrast. […]

[2] = test system: CD44; assay: CD44 levels in MM.1S subcutaneous xenograft mice (IHC, serum ELISA); type: in vivo; details: 25 mg/kg, 2 injections
Protocol: To investigate if AR-42 treatment could affect CD44 expression in vivo, a xenograft MM mouse model was created by injecting 1×10^7 viable cells of MM.1S cell line subcutaneously into the right flank of 12 NOD-SCID mice. […] One group of mice (n=4) received intra-peritoneal injections of 25 mg/kg AR-42, while the second group (n=4) was injected with vehicle control (8% DMSO in PBS; Ctrl). Injections were administered once a day (on Monday and Wednesday). Because the anti-tumor activity of AR-42 has been previously reported in preclinical mouse studies, mice were sacrificed 2 days after the second injection in order to avoid tumor size reduction. […] Tumors were excised and used for CD44 immunohistochemical (IHC) studies, while the serum was collected for ELISA assays. […] Thus, AR-42 down-regulates CD44 directly in vivo.
Blood from xenografted mice (0.6 ml/kg) was collected by retro-orbital bleeding and serum was obtained by centrifuging it at 1500×g for 10 min. […] Finally, 100 […] of Stop Reagent was added and absorbance was read on a spectrophotometer at 450 nm. Soluble CD44 (sCD44) content was calculated based on the readings from the standard and sample dilution factor.
Animal experiments were performed according to OSU institutional guidelines. […] The tumor size was measured once a week using a caliper, and the volume was calculated in cubed millimeters (mm3), using the formula L×W2/2. […]

CC(C)[C@H](C(=O)Nc1ccc(C(=O)NO)cc1)c1ccccc1 [AR-42, (S)-N-hydroxy-4-(3-methyl-2-phenylbutanamido)benzamide]
CD44 expression in whole BM [1]: Downregulation
soluble CD44 in serum (ELISA) [2]: decreased levels
CD44 staining of tumor sections (IHC) ([2]; vs control group): significant lower CD44 staining
